Reference: the C3SDB collision cross section collection

Settings: instrument: TW, calibrated with polyalanine and drug standards

O=C(O)CCNC(=O)c1ccccc1 [BETAMIPRON]
collision cross section (N2) ([M+H]+): 138.7 Å²

CC(C)(Oc1ccc(CCNC(=O)c2ccc(Cl)cc2)cc1)C(=O)O [BEZAFIBRATE]
collision cross section (N2) ([M+H]+): 177.3 Å²

COc1ccc(-c2coc3cc(O)cc(O)c3c2=O)cc1 [BIOCHANIN A]
collision cross section (N2) ([M+H]+): 160.9 Å²

OC(CCN1CCCCC1)(c1ccccc1)C1CC2C=CC1C2 (configuration not stated) [BIPERIDEN]
collision cross section (N2) ([M+H]+): 175.7 Å²

CC(C)(c1ccc(O)cc1)c1ccc(O)cc1 [BISPHENOL A]
collision cross section (N2) ([M+H]+): 147.1 Å²

CC1(C)CC2C1CC[C@]1(CBr)CCC3C(CC(=O)O)C(=O)O[C@@]32C1 (some centres not stated) [BROMO-3-HYDROXY-4-(SUCCIN-2-YL)-CARYOLANE gamma-LACTONE]
collision cross section (N2) ([M+H]+): 183.4 Å²

COc1cc2c(cc1OC)[C@@]13CCN4CC5=CCO[C@H]6CC(=O)N2[C@H]1[C@H]6[C@H]5C[C@H]43 [BRUCINE]
collision cross section (N2) ([M+H]+): 190.9 Å²

CCOc1ccc(NC(=O)CC(C)O)cc1 (configuration not stated) [BUCETIN]
collision cross section (N2) ([M+H]+): 152.5 Å²

CCCC(=O)Nc1ncnc2c1ncn2[C@@H]1O[C@@H]2COP(=O)(O)O[C@H]2[C@H]1OC(=O)CCC [BUCLADESINE]
collision cross section (N2) ([M+H]+): 215.3 Å²

CCCCNc1cc(C(=O)O)cc(S(N)(=O)=O)c1Oc1ccccc1 [BUMETANIDE]
collision cross section (N2) ([M+H]+): 185.1 Å²

CC(NC(C)(C)C)C(=O)c1cccc(Cl)c1 (configuration not stated) [BUPROPION]
collision cross section (N2) ([M+H]+): 157.5 Å²

CCCCN(CCCC)CCCOC(=O)c1ccc(N)cc1 [BUTACAINE]
collision cross section (N2) ([M+H]+): 179 Å²

Clc1ccc(CCC(Cn2ccnc2)Sc2c(Cl)cccc2Cl)cc1 (configuration not stated) [BUTOCONAZOLE]
collision cross section (N2) ([M+H]+): 186.5 Å²

Cn1c(=O)c2c(ncn2C)n(C)c1=O [CAFFEINE]
collision cross section (N2) ([M+H]+): 136.9 Å²

CCOc1nc2cccc(C(=O)OC(C)OC(=O)OC3CCCCC3)c2n1Cc1ccc(-c2ccccc2-c2nn[nH]n2)cc1 (configuration not stated) [CANDESARTAN CILEXTIL]
collision cross section (N2) ([M+H]+): 241.5 Å²

C[C@]12CCC(=O)C=C1C=C[C@@H]1[C@@H]2CC[C@@]2(C)[C@H]1CC[C@@]21CCC(=O)O1 [CANRENONE]
collision cross section (N2) ([M+H]+): 183 Å²

COC(=O)C[C@H]1C(C)(C)C(=O)[C@@H]2CC3C4=CC(=O)O[C@@H](c5ccoc5)[C@]4(C)CCC3[C@@]1(C)C2=O (some centres not stated) [CARAPIN]
collision cross section (N2) ([M+H]+): 206.1 Å²

COC(=O)N=N/C=C1\C=[N+]([O-])c2ccccc2N1O [CARBADOX]
collision cross section (N2) ([M+H]+): 153.9 Å²

CCCC(C)(COC(N)=O)COC(=O)NC(C)C (configuration not stated) [CARISOPRODOL]
collision cross section (N2) ([M+H]+): 149.1 Å²

COc1ccccc1OCCNCC(O)COc1cccc2[nH]c3ccccc3c12 (configuration not stated) [CARVEDILOL]
collision cross section (N2) ([M+H]+): 189.1 Å²

COc1cc(OC)c2c(c1)O[C@H](c1ccc(OC)c(OC)c1)[C@@H](O)C2 [CATECHIN TETRAMETHYLETHER]
collision cross section (N2) ([M+H]+): 174.4 Å²

C[C@@H]1CC[C@H]2C(C)(C)[C@H]3C[C@@]12CC[C@@]3(C)O [CEDROL]
collision cross section (N2) ([M+H]+): 145.9 Å²

CC1=C(O)C(=O)C=C2C1=CC=C1[C@@]2(C)CC[C@@]2(C)[C@@H]3C[C@](C)(C(=O)O)CC[C@]3(C)CC[C@]12C [CELASTROL]
collision cross section (N2) ([M+H]+): 205.6 Å²

Cc1ccc(-c2cc(C(F)(F)F)nn2-c2ccc(S(N)(=O)=O)cc2)cc1 [CELECOXIB]
collision cross section (N2) ([M+H]+): 186.1 Å²

CC1=C(C(=O)O)N2C(=O)[C@@H](NC(=O)[C@H](N)c3ccccc3)[C@H]2SC1 [CEPHALEXIN]
collision cross section (N2) ([M+H]+): 178.5 Å²

O=C(O)CCCc1ccc(N(CCCl)CCCl)cc1 [CHLORAMBUCIL]
collision cross section (N2) ([M+H]+): 168.7 Å²

CN1C(=O)CCS(=O)(=O)C1c1ccc(Cl)cc1 (configuration not stated) [CHLORMEZANONE]
collision cross section (N2) ([M+H]+): 158.2 Å²

CC(=O)Oc1ccc(Cl)c2cccnc12 [CHLOROACETOXYQUINOLINE]
collision cross section (N2) ([M+H]+): 141.1 Å²

CN(C)CCCN1c2ccccc2Sc2ccc(Cl)cc21 [CHLORPROMAZINE]
collision cross section (N2) ([M+H]+): 169.8 Å²

CC(C)CCCC(C)C1CCC2C3CCC4CC(=O)CCC4(C)C3CCC12C (configuration not stated) [CHOLESTAN-3-ONE]
collision cross section (N2) ([M+H]+): 187.2 Å²

COC(=O)CC[C@@H](C)[C@H]1CC[C@H]2[C@@H]3[C@H](O)C[C@@H]4C[C@H](O)CC[C@]4(C)[C@H]3C[C@H](O)[C@]12C [CHOLIC ACID, METHYL ESTER]
collision cross section (N2) ([M+Na]+): 198.1 Å²

O=c1cc(-c2ccccc2)oc2cc(O)cc(O)c12 [CHRYSIN]
collision cross section (N2) ([M+H]+): 151.7 Å²
